Where two headings read alike, the source gives them in different places.

One assay has as its system SUDHL6. Nature of the assay: CellTiter-Glo cell proliferation assay, SUDHL6. The format is cell-based. Particulars: Homo sapiens, SU-DHL-6; SUDHL6 (DLBCL), single agent, Table 2. (In general: ATP-based viability assays read luminescence as a measure of living cells.)
A further assay deals with RI1. Nature of the assay: CellTiter-Glo cell proliferation assay, RI1. Particulars: Ri-1; RI1 (B-NHL), single agent, Table 2. The class given is cell-based.
The test system of another assay is SUDHL5. Nature of the assay: CellTiter-Glo cell proliferation assay, SUDHL5. The format is cell-based. Particulars: Homo sapiens, SU-DHL-5; SUDHL5 (DLBCL), single agent, Table 2.
The next assay concerns MC116. Kind of assay: CellTiter-Glo cell proliferation assay, MC116. The class given is cell-based. Particulars: Homo sapiens; MC116 (NHL), single agent, Table 2.
In another assay the test system is WSUNHL. Kind of assay: CellTiter-Glo cell proliferation assay, WSUNHL. Conditions: Homo sapiens, WSU-NHL, single agent, Table 2. The class given is cell-based.
Another assay concerns Rec1. Kind of assay: CellTiter-Glo cell proliferation assay, Rec1. The format is cell-based. Conditions: Homo sapiens; Rec1 (B-NHL), single agent, Table 2.
Another assay deals with Granta519. Nature of the assay: CellTiter-Glo cell proliferation assay, Granta519. Particulars: Homo sapiens, Granta-519; Granta519 (MCL), single agent, Table 2. The format is cell-based.
Another assay relates to Farage. Kind of assay: CellTiter-Glo cell proliferation assay, Farage. Particulars: Farage (DLBCL), single agent, Table 2. The format is cell-based.
A further assay has as its system OciLy19. Kind of assay: CellTiter-Glo cell proliferation assay, OciLy19. The class given is cell-based. Particulars: Homo sapiens, OCI-LY19; OciLy19 (DLBCL), single agent, Table 2.
The test system of another assay is Jeko1. Nature of the assay: CellTiter-Glo cell proliferation assay, Jeko1. The class given is cell-based. Particulars: Homo sapiens, JeKo-1; Jeko1 (MCL), single agent, Table 2.
For another assay, the system named is SUDHL4. Kind of assay: CellTiter-Glo cell proliferation assay, SUDHL4. Particulars: Homo sapiens, SU-DHL-4; SUDHL4 (DLBCL), single agent, Table 2. The class given is cell-based.
In another assay the test system is HT. Nature of the assay: CellTiter-Glo cell proliferation assay, HT. The class given is cell-based. Conditions: Homo sapiens; HT (DLBCL), single agent, Table 2.
Another assay has as its system DB. Nature of the assay: CellTiter-Glo cell proliferation assay, DB. The class given is cell-based. Particulars: Homo sapiens; DB (DLBCL), single agent, Table 2.
Another assay relates to Ramos. Kind of assay: CellTiter-Glo cell proliferation assay, Ramos. The format is cell-based. Conditions: Homo sapiens; Ramos (Burkit's), single agent, Table 2.
Another assay has as its system SC1. Nature of the assay: CellTiter-Glo cell proliferation assay, SC1. The format is cell-based. Particulars: Homo sapiens, SC-1; SC1 (DLBCL), single agent, Table 2.
In the next assay the test system is Toledo. Nature of the assay: CellTiter-Glo cell proliferation assay, Toledo. The class given is cell-based. Particulars: Homo sapiens; Toledo (DLBCL), single agent, Table 2.
Another assay concerns EJM. Nature of the assay: CellTiter-Glo cell proliferation assay, EJM. The format is cell-based. Conditions: Homo sapiens, read-out: EC50 (μM) GDC-0941 (single agent), Table 4.
In the next assay the test system is KSM-12-BM. Kind of assay: CellTiter-Glo cell proliferation assay, KSM-12-BM. The class given is cell-based. Particulars: Homo sapiens, read-out: EC50 (μM) GDC-0941 (single agent), Table 4.
The test system of assay [1] is primary follicular lymphoma cells from patient NHL600. Kind of assay: Cell-Titer Glo survival and proliferation assay, primary follicular lymphoma cells. The class given is cell-based, human. Particulars: patient NHL600, FIG. 4, single agent. The text has this: GDC-0464 (Genentech, Inc.) is a potent thienopyrimidine PI3K inhibitor (US 2008/0076758). LY294002 (Eli Lilly & Co., CAS Reg. No. 154447-36-6) is also a potent inhibitor of PI3 kinases (WO 2003/035099).

The test system of assay [2] is p-AKT and p-S6RP in DoHH2, WSU-DLCL2, OPM2, and U266 cells. Nature of the assay: FACS intracellular detection of p-Akt and p-S6 ribosomal protein. The format is cell-based, human. Conditions: 5 μM for 4 hrs, FIGS. 1a and 1b.
Method: (§3) B cell lines (DoHH2 and WSU-DLCL2) and Myeloma cell lines (OPM2 and U266) were maintained in RPMI-1640/10% FBS in the presence of Pen/Strep and Glutamine.
Seed 10^7 cells of each cell line in 10 mL culture media in 10 cm Petri dish, 2 dishes for each cell line. • 2. […] Keep cells at 37° C., 5% CO2 incubator for 4 hours before harvesting. • 4. Transfer 1 mL of each condition (equivalent to 10^6 cells) to 5 mL FACS tube (BD) and spin at 1200 rpm for 5 min prior to fixation (harvest the other 9 mL culture-9×10^6 cells to 15 mL conical tube for Western). • 5. Aspirate the supernatant and fix the cells at room temperature with Fix/Perm Medium A (CAT #GAS001S-100) for 15 min. • 6. Wash the cells with PBS/2% FBS 1× • 7. Aspirate the supernatant and permeabilize the cells at room temperature with Fix/Perm Medium B (CAT #GAS002S-100) for 15 min. • 8. Wash the cells with PBS/2% FBS 1× • 9. Resuspend cells with 300 uL PBS/2% BSA and divide cells into 3 tubes 100 uL each (one for isotype-Rabbit IgG Alexa Fluor-647 and one for p-Akt Alexa Fluor-647 clone 193H12 and one for p-S6RP Alexa Fluor-647 clone D57.2.2E, all rabbit abs are from Cell Signaling). • 10. Add 50 ng of each Ab to corresponding tube and incubate at room temperature for 30 min. • 11. Wash the cells with PBS/2% FBS 1× • 12. Resuspend cells with 300 uL PBS/2% BSA and acquire data on FACSCalibur (BD) using CellQuest program. • 13. […]
Assay [3] shares this test system. Kind of assay: Western blotting for p-Akt, p-BAD and p-S6 ribosomal protein. The format is cell-based, human. Conditions: 5 μM for 4 hrs, FIG. 2. Background: A western blot detects proteins with antibodies after separation by electrophoresis.
Method: Cells were treated as indicated and lysates analyzed by Western Blotting. Beta Actin blotting indicates approximately equal loading of lysates in each lane.
as §3
Protocol: • 1. Seed 10^7 cells of each cell line in 10 mL culture media in 10 cm Petri dish, 2 dishes for each cell line. • 2. […] Keep cells at 37° C., 5% CO2 incubator for 4 hours before harvesting. • 4. Harvest 9 mL culture (equivalent to 9×10^6 cells) to 15 mL conical tube and pellet and make cell lysates with 1×SDS sample buffer. Transfer the other 1 mL of each condition (equivalent to 1×10^6 cells) to 5 mL FACS tube (BD) for FACS. • 5. Wash cells once with cold PBS. • 6. Measure the OD of the protein samples and prepare the samples with NuPAGE electrophoresis system reagents to load 20 ug of each. • 7. Mix each protein sample for electrophoresis with appropriate amount of NuPAGE LDS sample buffer and Reducing Agent and apply 70° C. heat for 10 min. • 8. Load 10 uL of SeeBlue Plus2 Pre-stained standard and 20 ug of each sample into 4-12% NuPAGE Norvex Bis-Tris Gel and run with MES-SDS buffer in the presence of antioxidant (135 volts for 1 hour in the XCell SureLock Mini-Cell apparatus). • 9. Transfer gels to the blotting membrane using iBlot apparatus. • 10. […]
Assay [4] relates to WSU-DLCL2 lymphoma tumor xenografts. Kind of assay: In vivo tumor xenograft efficacy, WSU-DLCL2. Details: species or system mice. Conditions: for effect on tumor growth (mean tumor volume change): FIG. 18, 25 days, GDC-0941 60 mg/kg po, Formula Ib 1 mg/kg po, Rapamycin 6 mg/kg ip. The text has this: (§1) Xenografts were initiated with cancer cells.
(§2) Animals were monitored for regression responses.

For assay [5], the system named is BJAB lymphoma tumor xenografts. Nature of the assay: In vivo tumor xenograft efficacy, BJAB. Details: species or system mice.
From the text: as §1, §2

The test system of assay [6] is multiple myeloma OPM-2 cell xenografts. Kind of assay: In vivo tumor xenograft efficacy, OPM-2. Details: species or system mice. Conditions: FIG. 13, 24 days; GDC-0941 73 mg/kg po, bortezomib 0.5 mg/kg iv, lenalidomide 25 mg/kg ip, dexamethasone 3 mg/kg po.
From the text: as §1, §2

In assay [7] the test system is primary diffuse large B-cell lymphoma (DLBCL) cells from patient NHL640-A055. Conditions: patient NHL640-A055, FIG. 5.
The subject of assay [8] is DoHH2 lymphoma tumor xenografts. Kind of assay: In vivo tumor xenograft efficacy, DoHH2. Conditions: FIG. 8, 34 days; GDC-0941 73 mg/kg po daily 21 days, rituximab 5 mg/kg iv qwk×3, CHOP.
From the text: The efficacy of the combinations of the invention may be measured in vivo by implanting allografts or xenografts of cancer cells in rodents and treating the tumor-bearing animals with the combinations.
The animals were fed ad libitum water (reverse osmosis, 1 ppm Cl) and NIH 31 Modified and Irradiated Lab Diet® consisting of 18.0% crude protein, 5.0% crude fat, and 5.0% crude fiber. The mice were housed on irradiated ALPHA-Dri® Bed-O'Cobs® Laboratory Animal Bedding in static microisolators on a 12-hour light cycle at 21-22° C. (70-72° F.) and 40-60% humidity.
Xenografts were initiated with cancer cells. […] On the day of tumor implant, each test mouse received 1×10^7 cells (0.2 mL) implanted subcutaneously in the right flank, and tumor growth was monitored as the average size approached the target range of 100 to 150 mm3. […] Volume was calculated using the formula: Tumor Volume (mm^3)=(w^2×l)/2 […]
Tumors were measured twice each week using calipers. Mice were monitored individually, and each animal was euthanized when its tumor reached a volume of 1500 mm3 or at the end of the study on Day 40, whichever came first. […] The time to endpoint (TTE) for each mouse was calculated from the following equation: TTE (days)=[log10(endpoint volume,mm^3)−b]/m […]
The test system of another assay is Bjab. Nature of the assay: CellTiter-Glo cell proliferation assay, Bjab. Conditions: Homo sapiens.
For another assay, the system named is OPM2. Nature of the assay: CellTiter-Glo cell proliferation assay, OPM2.
Another assay relates to DoHH2. Nature of the assay: CellTiter-Glo cell proliferation assay, DoHH2. Conditions: for EC50: Homo sapiens.
A further assay relates to MM1.S. Nature of the assay: CellTiter-Glo cell proliferation assay, MM1.S. Particulars: Homo sapiens, read-out: EC50 (μM) GDC-0941 (single agent).
The next assay relates to MOLP-8. Kind of assay: CellTiter-Glo cell proliferation assay, MOLP-8. Conditions: Homo sapiens, MOLP-8, read-out: EC50 (μM) GDC-0941 (single agent).
The next assay deals with NCI-H929. Kind of assay: CellTiter-Glo cell proliferation assay, NCI-H929. Particulars: Homo sapiens, NCI-H929, read-out: EC50 (μM) GDC-0941 (single agent).
In the next assay the test system is WSU-DLCL2. Nature of the assay: CellTiter-Glo cell proliferation assay, WSU-DLCL2. Particulars: Homo sapiens.
The test system of the next assay is RPMI-8226. Nature of the assay: CellTiter-Glo cell proliferation assay, RPMI-8226. Conditions: Homo sapiens, RPMI-8226, read-out: EC50 (μM) GDC-0941 (single agent).
Assay [9] deals with NCI-H929 multiple myeloma xenografts. Kind of assay: In vivo tumor xenograft efficacy, NCI-H929. Conditions: for antitumor activity (mean tumor volume change): lenalidomide 25 mg/kg ip. Details: species or system mice.
From the text: as §1, §2

The mark [10] stands for this setting: FIG. 16, 33 days, GDC-0941 75 mg/kg po, bortezomib 0.5 mg/kg iv, dexamethasone 3 mg/kg po.

Method for MM1.S: (§4) The in vitro potency of the combinations of Formula I compounds with chemotherapeutic agents was measured by the cell proliferation assay of Example 15; the CellTiter-Glo® Luminescent Cell Viability Assay, commercially available from Promega Corp., Madison, Wis. […] The homogeneous assay procedure involves adding the single reagent (CellTiter-Glo® Reagent) directly to cells cultured in serum-supplemented medium. Cell washing, removal of medium and multiple pipetting steps are not required. The system detects as few as 15 cells/well in a 384-well format in 10 minutes after adding reagent and mixing.
(§5) The individual measured EC50 values of the Formula I compounds and of the chemotherapeutic agent against the particular cell are compared to the combination EC50 value. The combination index (CI) score is calculated by the Chou and Talalay method (Chou, T. and Talalay, P. (1984) Adv. Enzyme Regul. 22:27-55). A CI less than 0.8 indicates synergy. […] The strength of synergy is assessed according to Chou and Talalay.
(§6) The assay assesses the ability of compounds to enter cells and inhibit cell proliferation. The assay principle is based on the determination of the number of viable cells present by quantitating the ATP present in a homogenous assay where addition of the Cell-Titer Glo reagent results in cell lysis and generation of a luminescent signal through the luciferase reaction. […]
Method for MOLP-8: as §4, §5, §6
Method for RPMI-8226: as §4, §5, §6

For the molecule `CS(=O)(=O)N1CCN(Cc2cc3nc(-c4cccc5[nH]ncc45)nc(N4CCOCC4)c3s2)CC1` [GDC-0941, 4-(2-(1H-indazol-4-yl)-6-((4-(methylsulfonyl)piperazin-1-yl)methyl)thieno[3,2-d]pyrimidin-4-yl)morpholine], the EC50 was determined as 10 nM with SUDHL6; 40 nM in the assay on RI1; 80 nM in the assay with SUDHL5; 160 nM in the assay with MC116; 160 nM with WSUNHL; 160 nM in the assay with Rec1. In addition, the half-maximal effective concentration (EC50) came out at 210 nM in the assay with Granta519; 240 nM in the assay on Farage; 320 nM in the assay with OciLy19; 320 nM with Jeko1; 1350 nM in the assay on SUDHL4; 2840 nM in the assay with HT. In addition, the EC50 with DB is at least 10000 nM; with Ramos it was at least 10000 nM; in the assay with SC1, at least 10000 nM; with Toledo it was at least 10000 nM; in the assay with EJM it was 1.5 µM; with KSM-12-BM, above 5 µM. The EC50 stood at 0.33 µM with Bjab; 0.33 µM in the assay with Bjab (read-out: EC50 (μM) GDC-0941 (single agent)); 1.23 µM in the assay with OPM2 (Homo sapiens, OPM-2, read-out: EC50 (μM) GDC-0941 (single agent)); 0.26 µM in the assay on DoHH2 (DOHH-2); 0.16 µM with DoHH2 (DOHH-2, read-out: EC50 (μM) GDC-0941 (single agent)); 0.22 µM in the assay on MM1.S. Further, the EC50 came to 0.06 µM in the assay on MOLP-8; 0.43 µM in the assay with NCI-H929; 0.13 µM in the assay on WSU-DLCL2 (WSUDLCL2); 0.17 µM with WSU-DLCL2 (WSUDLCL2, read-out: EC50 (μM) GDC-0941 (single agent)); 2.53 µM in the assay on RPMI-8226. In addition, the “potency against primary cancer cells (viable cells)” value in assay [1] was “surprising and unexpected degree of potency”. The “p-AKT signal (flow cytometry)” value in assay [2] was “abolished p-AKT signal”. Besides, the “p-S6RP signal (flow cytometry)” value in [2] was “reduced or abolished p-S6RP signal”. Moreover, the “p-AKT signal (western blotting)” value in assay [3] is on record as “significantly reduced (where present)”. The “p-S6RP signal (western blotting)” value in assay [3] is on record as “significantly reduced (where present)”. Moreover, the “antitumor activity (mean tumor volume change)” value in assay [4] (FIG. 7, 20 days, GDC-0941 73 mg/kg po daily 21 days, rituximab 5 mg/kg days 0, 7, 14, CHOP from day 0) was “only modest activity”; in assay [5] (FIG. 10, 25 days, GDC-0941 73 mg/kg po daily 21 days, CHOP from day 0), “only modest activity”; in assay [5] (FIG. 11, 25 days, GDC-0941 75 mg/kg po qd×21, rituximab 5 mg/kg days 0, 7, 14) it was “only modest activity”; in assay [6], “indistinguishable and moderate tumor activity”; in assay [8], “significantly different than vehicle”. In addition, the “effect on tumor growth (mean tumor volume change)” value in assay [4] is “little effect on tumor growth”. For the same molecule, in [7], the “cell viability, relative potency” value was “significantly more potent than doxorubicin”.
On to `CC(C)C[C@H](NC(=O)[C@H](Cc1ccccc1)NC(=O)c1cnccn1)B(O)O` [bortezomib, [(1R)-3-methyl-1-({(2S)-3-phenyl-2-[(pyrazin-2-ylcarbonyl)amino]propanoyl}amino)butyl]boronic acid], for which the “antitumor activity (mean tumor volume change)” value in assay [9] (FIG. 12, 22 days, single agents, GDC-0941 73 mg/kg po, bortezomib 1 mg/kg iv, dexamethasone 10 mg/kg po) was “exceeded by the efficacy of bortezomib”; in [9] (setting [10]), “modest activity”; in assay [6], “sub-clinical response which was not different than that of vehicle”. The molecule also returned a partial responses in [9] (FIG. 12, cohorts of 10 mice) of 3.
With `Cc1c(CN2CCN(C(=O)[C@H](C)O)CC2)sc2c(N3CCOCC3)nc(-c3cnc(N)nc3)nc12` [Formula Ib, (S)-1-(4-((2-(2-aminopyrimidin-5-yl)-7-methyl-4-morpholinothieno[3,2-d]pyrimidin-6-yl)methyl)piperazin-1-yl)-2-hydroxypropan-1-one], the “effect on tumor growth (mean tumor volume change)” value in assay [4] is “little effect on tumor growth”.
As to `C[C@@H]1C[C@H]2[C@@H]3CCC4=CC(=O)C=C[C@]4(C)[C@@]3(F)[C@@H](O)C[C@]2(C)[C@@]1(O)C(=O)CO` [dexamethasone, (8S,9R,10S,11S,13S,14S,16R,17R)-9-fluoro-11,17-dihydroxy-17-(2-hydroxyacetyl)-10,13,16-trimethyl-6,7,8,11,12,14,15,16-octahydrocyclopenta[a]phenanthren-3-one, reference compound], the “antitumor activity (mean tumor volume change)” value in [9] (setting [10]) is “modest activity”; in assay [6] it was “indistinguishable and moderate tumor activity”. The “response in cell proliferation assay” value with OPM2 (multiple myeloma OPM2 cells, FIG. 6, single agent) is recorded as “relatively weak response”. The “single agent activity on viable cells (dose-response)” value in the assay on DoHH2 (B-NHL cell line DoHH2, FIG. 3) is “relatively impotent activity”.
Regarding `Nc1cccc2c1CN(C1CCC(=O)NC1=O)C2=O` (stereo not shown) [lenalidomide, 3-(4-amino-1-oxoisoindolin-2-yl)piperidine-2,6-dione], the “antitumor activity (mean tumor volume change)” value in assay [9] (setting [10]) is “modest activity”; in assay [6], “indistinguishable and moderate tumor activity”.

Broadly, the EC50 is the midpoint of the concentration-response curve.

For the origin of these results see US9335320B2, “Combinations of phosphoinositide 3-kinase inhibitor compounds and chemotherapeutic agents for the treatment of hematopoietic malignancies” (Genentech, Inc., priority 2009, dated 2016).
